Results taken from patent US20260206761A1, “HETEROARYL-TRIAZOLE COMPOUNDS AS PESTICIDES” (Bayer Aktiengesellschaft, priority 2019, published 2026).

Columns and labels:
Type in all cases: in vivo
[1] = system: green peach aphid (Myzus persicae); experiment: Myzus persicae oral test; conditions: 120 h, application rate 4 ppm, after 5 days
Method in brief: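 Five-day oral feeding assay measuring percent mortality of a mixed aphid population that draws compound-containing sugared IPL41 medium through sealing parafilm; the test preparation derives from 1 part compound per 100 parts acetone, diluted with water.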

[2] = system: Aedes aegypti strain MONHEIM; experiment: Aedes aegypti test (AEDSAE surface treatment & contact assay); conditions: 24 hours after contact, read-out: efficacy (mortality); for mortality at 4 mg/m2: surface concentration 4 mg/m^2, exposure 30 minutes; for mortality at 20 mg/m2: surface concentration 20 mg/m^2, exposure 30 minutes
Method in brief: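 Percent mortality was read 24 h after adult MONHEIM mosquitoes were held for 30 min on a tile treated with compound. Compound applied from acetone solution (2 mg/ml) containing 2000 ppm rapeseed oil methyl ester, after evaporation.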

[3] = system: adult engorged female ticks (Rhipicephalus microplus); experiment: Rhipicephalus (Boophilus) microplus injection test; conditions: 168 h, egg deposition after 7 days, read-out: activity (efficacy: infertile eggs); for pest or weed control at 4 pg: application rate 4 pg/animal; for pest or weed control at 0.02 mg: application rate 20 μg/animal
Method in brief: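 Abdominal injection, 1 μL compound/DMSO, n=5 engorged adult females; climate-chamber incubation. Readout d7: fertile egg laying; doubtful eggs held to hatch (~42 d). % efficacy = infertile eggs (100% all infertile).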

[4] = system: adult cat fleas (Ctenocephalides felis); experiment: Ctenocephalides felis in-vitro contact test, adult cat flea; conditions: application rate 5 μg/cm^2 (=500 g/ha), after 48 hours, read-out: activity (efficacy: fleas dead or moribund)
Method in brief: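 Efficacy, as % of fleas dead or moribund, was read 48 h after 5-10 adult cat fleas were confined in glass tubes whose walls carried dried compound film (900 ppm, […]). Fleas failing to escape upward from a 45-50° C plate within 5 min counted as dead or moribund.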

[5] = system: green peach aphid (Myzus persicae); experiment: Myzus persicae spray test; conditions: 120 h, after 5 days; for mortality at 100 g/ha: application rate 100 g/ha; for mortality at 500 g/ha: application rate 500 g/ha
Method in brief: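 Chinese cabbage leaf disks carrying all instars of M. persicae sprayed with compound in acetone/DMF, diluted in water with 1000 ppm alkylarylpolyglycol ether emulsifier. Percent mortality scored after 5 days (100% = all aphids killed).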

[6] = system: adult unfed cat fleas (Ctenocephalides felis); experiment: Ctenocephalides felis oral test; conditions: 48 h, read-out: activity (mortality)
Method in brief: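 About 20 adult unfed fleas fed through parafilm on cattle blood containing compound (DMSO stock diluted in blood), blood held at 37 °C and fleas at room temperature. Mortality (%) scored after 2 days.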

[7] = system: larvae of the banded cucumber beetle (Diabrotica balteata); experiment: Diabrotica balteata spray test; conditions: 168 h, after 7 days, read-out: activity (efficacy: seedlings grown); for pest or weed control at 100 g/ha: application rate 100 g/ha (=32 pg/well); for pest or weed control at 500 g/ha: application rate 500 g/ha (=160 pg/well)
Method in brief: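 Read-out is % efficacy at day 7, 0% meaning no seedling growth and 100% growth equal to uninfested untreated controls. Test solutions (acetone/DMF concentrate diluted with water carrying 1000 ppm emulsifier) were sprayed onto 1-day-germinated wheat seeds, 5 per well, before infestation with 10-20 larvae.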

[8] = system: fall armyworm larvae (Spodoptera frugiperda); experiment: Spodoptera frugiperda spray test; conditions: 168 h, read-out: activity (mortality)
Method in brief: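 Larvae of fall armyworm placed on dried maize leaf sections previously sprayed with emulsified compound (acetone/DMF solvent, water with 1000 ppm emulsifier). Percent of caterpillars killed recorded on day 7, 0–100% scale.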

| Structure (SMILES) | mortality at 4 ppm [1] [%] | mortality at 4 mg/m2 [2] [%] | mortality at 20 mg/m2 [2] [%] | pest or weed control at 4 pg [3] [%] | pest or weed control at 0.02 mg [3] [%] | pest or weed control at 5 µg/cm2 [4] [%] | mortality at 100 g/ha [5] [%] | mortality at 100 ppm [6] [%] | pest or weed control at 100 g/ha [7] [%] | mortality at 100 g/ha [8] [%] | mortality at 500 g/ha [5] [%] | pest or weed control at 500 g/ha [7] [%] | mortality at 500 g/ha [8] [%] |
| --- | --- | --- | --- | --- | --- | --- | --- | --- | --- | --- | --- | --- | --- |
| C[C@H](NC(=O)c1cc(Cl)cc(S(=O)(=O)C2CC2)c1)c1nc(C2CC2)nn1-c1ncc(Cl)cn1 [I-25] | 100 | 80 to 100 | 80 to 100 | 100 | 100 | 100 | 100 | 100 | 100 | 100 |  |  |  |
| CC(NC(=O)c1cc(C(F)(F)F)cc(S(C)(=O)=O)c1)c1nc(Cl)nn1-c1ncccn1 (stereo not shown) [I-30] | 100 | 80 to 100 | 80 to 100 | 100 | 100 | 100 | 90 | 100 | 100 |  |  |  |  |
| CSc1cc(C#N)cc(C(=O)N[C@@H](C)c2ncnn2-c2ccc(C#N)cn2)c1 [II-3] | 100 | 80 to 100 | 80 to 100 | 100 | 100 | 100 | 100 | 100 | 100 |  | 100 | 100 | 100 |
| C[C@H](NC(=O)c1cc(OC(F)(F)F)cc(C2CC2)c1)c1ncnn1-c1ccccn1 [II-22] | 100 | 80 to 100 | 80 to 100 | 100 | 100 | 100 |  | 100 | 100 | 100 | 90 | 100 | 100 |
| C[C@H](NC(=O)c1cc(C#N)cc(S(C)(=O)=O)c1)c1ncnn1-c1ccc(Cl)cn1 [II-29] | 100 | 80 to 100 | 80 to 100 | 100 | 100 | 100 | 90 | 100 |  | 83 | 100 | 100 | 100 |
| C[C@H](NC(=O)c1cc(Cl)cc(S(=O)(=O)C(F)F)c1)c1ncnn1-c1ncccn1 [II-34] | 100 | 80 to 100 | 80 to 100 | 100 | 100 | 100 | 100 | 100 | 100 | 83 | 100 | 100 | 100 |
| Cc1nc([C@H](C)NC(=O)c2cc(Cl)cc(S(=O)(=O)C(F)F)c2)n(-c2ccc(C#N)cn2)n1 [II-35] | 100 | 80 to 100 | 80 to 100 | 100 | 100 | 100 | 100 | 100 | 100 |  | 100 | 100 |  |
| Cc1nc([C@H](C)NC(=O)c2cc(Cl)cc(S(=O)(=O)C(F)F)c2)n(-c2ccc(Cl)cn2)n1 [II-36] | 100 | 80 to 100 | 80 to 100 | 100 | 100 | 100 |  | 100 | 100 | 100 | 90 | 100 | 100 |
| Cc1nc([C@H](C)NC(=O)c2cc(Cl)cc(C3(C#N)CC3)c2)n(-c2ccc(C#N)cn2)n1 [II-38] | 100 | 80 to 100 |  | 100 | 100 | 100 | 90 | 100 | 100 | 100 |  |  |  |
| C[C@H](NC(=O)c1cc(Cl)cc(S(C)(=O)=O)c1)c1ncnn1-c1ncc(OC(F)F)cn1 [II-42] | 100 | 80 to 100 | 80 to 100 | 100 | 100 | 100 | 90 | 100 | 80 |  |  |  |  |
| C[C@H](NC(=O)c1cc(C(F)(F)F)cc(C2(C#N)CC2)c1)c1ncnn1-c1ccc(C#N)cn1 [II-47] | 100 | 80 to 100 | 80 to 100 | 100 | 100 | 100 | 100 | 100 | 100 | 100 |  |  |  |
| C[C@H](NC(=O)c1cc(C(F)(F)F)cc(C2(C#N)CC2)c1)c1ncnn1-c1ccc(Cl)cn1 [II-48] | 100 | 80 to 100 | 80 to 100 | 100 | 100 | 90 | 100 | 100 | 100 | 100 |  |  |  |
| Cc1nc([C@H](C)NC(=O)c2cc(C(F)(F)F)cc(C3(C#N)CC3)c2)n(-c2ccc(C#N)cn2)n1 [II-49] | 100 | 80 to 100 | 80 to 100 | 100 | 100 | 100 | 100 | 100 | 100 | 100 |  |  |  |
| Cc1nc([C@H](C)NC(=O)c2cc(C(F)(F)F)cc(C3(C#N)CC3)c2)n(-c2ccc(Cl)cn2)n1 [II-50] | 100 | 80 to 100 | 80 to 100 | 100 | 100 | 100 | 100 | 100 | 100 | 100 |  |  |  |
| C[C@H](NC(=O)c1cc(C#N)cc(C2CC2)c1)c1ncnn1-c1ncccn1 [II-54] | 100 | 80 to 100 | 80 to 100 |  |  | 100 | 100 | 100 | 100 | 83 |  |  |  |
